# Experimental data taken from US20250134887A1, “METHODS OF TREATING PROSTATE CANCER” (AstraZeneca AB, priority 2022, published 2025).
# What was measured:
# [1] = tested on: patients with progressive mCRPC who had not received chemotherapy; conditions: COU-AA-302; cited from earlier work
# [2] = tested on: patients with mCRPC; test: PROpel (NCT03732820) double-blind randomized phase III trial: efficacy and patient-reported outcomes; type: in vivo, human
# Excerpt: The primary objective was efficacy as assessed by investigator-assessed imaging-based progression-free survival.
# Patient population. Eligible patients were 18 years of age (or 19 years of age in South Korea) and had histologically or cytologically confirmed prostate adenocarcinoma with at least one documented metastatic lesion on either a bone scan, computed tomography, or magnetic resonance imaging scan. […] Docetaxel during neoadjuvant/adjuvant treatment for localized prostate cancer and the metastatic hormone-sensitive (mHSPC) stage of disease was permitted, as long as no signs of failure or disease progression occurred during or immediately after such treatment. Prior to mCRPC stage, treatment with second-generation antiandrogen agents (except abiraterone) without PSA progression/clinical progression/radiographic progression during treatment was allowed, provided the treatment was stopped at least 12 months before randomisation.
# Trial design and interventions. This was a double-blind, placebo-controlled, phase Ill trial. Eligible patients were randomized (1:1) to treatment with abiraterone acetate (1000 mg once daily) in combination with either olaparib (300 mg twice daily) or placebo. All patients received prednisone or prednisolone (5 mg twice daily) as per the abiraterone acetate label requirement. Randomization was stratified by distant metastasis type (bone only/visceral/other) at baseline and by docetaxel treatment at the mHSPC stage of disease (yes or no). Study treatment continued until objective imaging-based progressive disease assessed by investigator (using Response Evaluation Criteria in Solid Tumors [RECIST 1.1] for soft tissue lesions and Prostate Cancer Working Group-3 [PCWG-3] criteria for bone lesions), unacceptable toxicity, or withdrawal of consent. Following objective disease progression, further treatment options were at the discretion of the investigator. […] Crossover from placebo to receive olaparib in combination with abiraterone acetate was not allowed.
# Endpoints. The primary endpoint was imaging-based progression-free survival or death from any cause in the absence of disease progression. Sensitivity analysis by blinded independent central review and exploratory subgroup analysis of investigator-assessed imaging-based progression-free survival to assess consistency of treatment effect across potential prognostic factors were prespecified. Subgroups included HRRm status.
# A key secondary endpoint was overall survival. Other secondary endpoints included time to first subsequent therapy or death (TFST), time to second progression or death (PFS2) and patient-reported outcomes. Further exploratory endpoints were objective response rate (ORR), prostate-specific antigen (PSA) response rate and time to PSA progression.
# Statistical analysis. Efficacy was analyzed for the intention-to-treat population and safety was analyzed for all patients who received any amount of abiraterone acetate, olaparib, or placebo.
# The first planned interim analysis of the primary endpoint of imaging-based progression-free survival is reported in this example. Imaging-based progression-free survival will be reported subsequently at a second data cutoff. Overall survival will be formally tested at all points, including a third data cutoff.
# With a sample size of 796 patients, the first interim analysis was planned to occur when there had been approximately 379 progression or death events (47.6% maturity), to provide 94.1% power at a one-sided alpha of 0.014 to show a statistically significant difference in imaging-based progression-free survival between the trial arms, assuming a hazard ratio for progression or death of 0.68.
# A multiple testing procedure controlled the overall one-sided type 1 error rate of 2.5%.
# [3] = rPFS investigator assessment, FAS, All patients
# [4] = rPFS, subgroup Age at randomisation: <65 years
# [5] = rPFS, subgroup Age at randomisation: ≥65 years
# [6] = rPFS, subgroup Docetaxel treatment at mHSPC stage
# [7] = rPFS, subgroup HRRm Unknown, ctDNA test
# [8] = rPFS, subgroup HRRm Unknown, tumour tissue test
# [9] = rPFS, subgroup HRRm, ctDNA test (FoundationOne Liquid CDx)
# [10] = rPFS, subgroup HRRm, tumour tissue test (FoundationOne CDx)
# [11] = rPFS, subgroup No docetaxel treatment at mHSPC stage
# [12] = rPFS, subgroup Non-HRRm, ctDNA test
# [13] = rPFS, subgroup Non-HRRm, tumour tissue test
# [14] = rPFS, subgroup Site of distant metastases: Bone only
# [15] = rPFS, subgroup Site of distant metastases: Other
# [16] = rPFS, subgroup Site of distant metastases: Visceral
smiles,measurement,setting,value
"CC(=O)O[C@H]1CC[C@@]2(C)C(=CC[C@@H]3[C@@H]2CC[C@]2(C)C(c4cccnc4)=CC[C@@H]32)C1 [abiraterone acetate and placebo, (3β)-17-(3-pyridinyl) androsta-5,16-dien-3-yl acetate]",median radiographic progression-free survival,[1],16.5 months
same,second progression or death events,"[2]; PFS2, number of events",94
same,patients who received a first subsequent therapy,"[2]; TFST, number of patients",221
same,Confirmed PSA response,"[2]; human, in vivo",69.2%
same,Median time to PSA progression,"[2]; human, in vivo",12.0 months
same,median imaging-based progression-free survival by investigator assessment,"[2]; intention-to-treat, first interim analysis, data cutoff Jul. 30, 2021",16.6 months
same,Median rPFS,"[2]; investigator assessment, FAS, All patients",16.59 months
same,"progression or death events, blinded independent central review",[2]; number of events,218
same,"progression or death events, investigator assessment",[2]; number of events,226
same,"ORR, number of patients with response",[2]; of 161 patients (olaparib arm) / of 160 patients (placebo arm) with measurable disease at baseline,77
same,deaths,"[2]; overall survival analysis, number of deaths",121
same,ORR,[2]; patients with measurable disease at baseline,48.1%
same,median imaging-based progression-free survival by blinded independent central review,[2]; prespecified sensitivity analysis,16.4 months
same,Number of events/total number of patients,[2]; [3],226/397
same,Number of events/total number of patients (%),[2]; [3],(56.9) %
same,Number of events/total number of patients,[2]; [4],59/97
same,Number of events/total number of patients (%),[2]; [4],(60.8) %
same,Number of events/total number of patients,[2]; [5],167/300
same,Number of events/total number of patients (%),[2]; [5],(55.7) %
same,Number of events/total number of patients,[2]; [6],56/94
same,Number of events/total number of patients (%),[2]; [6],(59.6) %
same,Number of events/total number of patients,[2]; [7],13/30
same,Number of events/total number of patients (%),[2]; [7],(43.3) %
same,Number of events/total number of patients,[2]; [8],76/131
same,Number of events/total number of patients (%),[2]; [8],(58.0) %
same,Number of events/total number of patients,[2]; [9],66/100
same,Number of events/total number of patients (%),[2]; [9],(66.0) %
same,Number of events/total number of patients,[2]; [10],37/56
same,Number of events/total number of patients (%),[2]; [10],(66.1) %
same,Number of events/total number of patients,[2]; [11],170/303
same,Number of events/total number of patients (%),[2]; [11],(56.1) %
same,Number of events/total number of patients,[2]; [12],147/267
same,Number of events/total number of patients (%),[2]; [12],(55.1) %
same,Number of events/total number of patients,[2]; [13],113/210
same,Number of events/total number of patients (%),[2]; [13],(53.8) %
same,Number of events/total number of patients,[2]; [14],102/217
same,Number of events/total number of patients (%),[2]; [14],(47.0) %
same,Number of events/total number of patients,[2]; [15],84/128
same,Number of events/total number of patients (%),[2]; [15],(65.6) %
same,Number of events/total number of patients,[2]; [16],40/52
same,Number of events/total number of patients (%),[2]; [16],(76.9) %
same,Median rPFS,[2]; subgroup Age at randomisation: <65 years,16.36 months
same,Median rPFS,[2]; subgroup Age at randomisation: ≥65 years,16.66 months
same,Median rPFS,[2]; subgroup Docetaxel treatment at mHSPC stage,13.83 months
same,Median rPFS,"[2]; subgroup HRRm Unknown, tumour tissue test",16.39 months
same,Median rPFS,"[2]; subgroup HRRm, ctDNA test (FoundationOne Liquid CDx)",13.63 months
same,Median rPFS,"[2]; subgroup HRRm, tumour tissue test (FoundationOne CDx)",16.62 months
same,Median rPFS,[2]; subgroup No docetaxel treatment at mHSPC stage,16.82 months
same,Median rPFS,"[2]; subgroup Non-HRRm, ctDNA test",18.96 months
same,Median rPFS,"[2]; subgroup Non-HRRm, tumour tissue test",16.59 months
same,Median rPFS,[2]; subgroup Site of distant metastases: Bone only,22.18 months
same,Median rPFS,[2]; subgroup Site of distant metastases: Other,13.70 months
same,Median rPFS,[2]; subgroup Site of distant metastases: Visceral,10.91 months
